# Reference: patent publication US20230286934A1, “Use of Multi-Kinase Inhibitors to Treat RNA Virus Infections” (priority 2020, published 2023)
# Where two headings read alike, the source gives them in different places.
# What was measured:
# SARS-CoV2 WA-2020 strain [1] = format: cell-based; details: Vero E6, 40,000 cells/well, MOI 0.01, 72 hours
# SARS-CoV2 WA-2020 strain [2] = format: cell-based; details: Vero E6, 2000 cells/well, MOI 0.05, 72 hours
# SARS-CoV-2 = experiment: microbe, parasite or virus in culture; format: cell-based; details: for IC50: read-out: IC50 of inhibition of the replication of SARS-CoV-2
# SARS-CoV2 WA-2020 strain [3] = format: cell-based; details: Vero E6, 40,000 cells/well, MOI 0.01, 72 hours supernatant
# Vero E6 cells = details: MTT assay, uninfected Vero E6 cells, same compound dilutions
# [4] = Severe acute respiratory syndrome coronavirus 2, Vero C1008, 48 h
smiles,measurement,setting,value
O=C1Nc2cc(S(=O)(=O)Cc3c(Cl)cccc3Cl)ccc2S/C1=C\c1ccc(O)c([N+](=O)[O-])c1 [compound 108600],release of NP protein from infected cells into the medium,SARS-CoV2 WA-2020 strain [1],inhibition was noted only with 10 µM concentration
same,release of NP protein / virus from infected cells,SARS-CoV2 WA-2020 strain [2],inhibited SARS-CoV-2 infection of Vero cells in a dose dependent manner
same,IC50,"SARS-CoV-2; Vero E6 cells, 2,000 cells/well, MOI 0.025, 48 h, percent infected cells (NP immunostain)",13 nM
same,"fold more effective/active than Remdesivir (IC50, SARS-CoV-2 replication)","SARS-CoV-2; Vero E6 cells, relative to Remdesivir",approximately 63 fold
same,infectious titer of released virus (plaque assay),SARS-CoV2 WA-2020 strain [3],correlated to the infectious titers
same,effect on the viability of Vero E6 cells,Vero E6 cells,little or no effect
CCC(CC)COC(=O)[C@H](C)N[P@](=O)(OC[C@H]1O[C@@](C#N)(c2ccc3c(N)ncnn23)[C@H](O)[C@@H]1O)Oc1ccccc1 [Remdesivir],IC50,SARS-CoV-2; [4],826 nM
CCN(CCO)CCCC(C)Nc1ccnc2cc(Cl)ccc12 (stereo not drawn) [Hydroxy-Chloroquine],IC50,SARS-CoV-2; [4],733 nM
CN1CCN(c2ccc(Nc3ncc4cc(C#N)c(=O)n(C5CCCC5)c4n3)cc2)CC1 [ON123300],effect on viral replication,"SARS-CoV-2; Vero E6 cells, negative control, data not shown",no effect on viral replication
